Consider eight compounds from patent US20200216454A1, “BIFUNCTIONAL MOLECULES FOR HER3 DEGRADATION AND METHODS OF USE” (Dana-Farber Cancer Institute, Inc., priority 2016, published 2020).

The target of assay [1] is T1, Her3 (Homo sapiens, UniProt P21860). As to the kind of experiment: Her3 protein degradation by Western blot. More on the design: endogenous in cells; host or cells: PC9-GR4; Ovacar 8; key: (+): Her3 protein was degraded; (−): Her3 protein was not degraded. Type of assay: cell-based. The conditions noted are these: PC9-GR4 or Ovacar 8 cell lines, 2 μM, 4 hour and 8 hour. The procedure:
Cells are seeded at the desired density the day before treatment starts with bifunctional compounds of the application at various concentration. After 4 to 12 hrs, cells are washed with buffer and lysed. The lysates are centrifuged and the supernatant is collected. Protein concentrations are measured using a protein assay kit, such as the BCA protein assay kit, Pierce, catalog number 23225) and normalized. Samples are run on a SDS-PAGE gel, and transferred to a PVDF membrane. The PVDF membrane is probed with the appropriate antibody.
Her3 protein degradation was assessed by Western blots after treatment of PC9-GR4 cell lines or Ovacar 8 cell lines with 2 μM of representative compounds for 4 hour and 8 hour.
Cells were seeded at a density of […] per 6 cm plate the day before treatment started with representative compounds of the application at the indicated concentration. After 4 to 12 hours, cells were washed with phosphate-buffered saline. Lysis buffer included 50 mM Tris-HCl, 150 mM NaCl, 1% NP-40, and 5 mM EDTA, pH 7.4+/−0.2, Roche PhosSTOP phosphatase inhibitor cocktail tablets and Roche Complete Protease inhibitor cocktail tablets. Cell lysis was accomplished by the addition of lysis buffer for 5-10 minutes on ice. Lysates were centrifuged in a microcentrifuge at 14,000 r.p.m. for 15 minutes at 4° C. and the supernatant was collected. Protein concentrations were measured using BCA protein assay kit (Pierce, catalog number 23225) and normalized. Samples were run on a 4%-12% SDS-PAGE gel at 120 V. After transfer, the PVDF membrane was probed with anti-Her3 antibody, Santa Cruz, catalog number sc-285 at 1:1000 dilution.
Target sequence in this assay (P21860 20-1342): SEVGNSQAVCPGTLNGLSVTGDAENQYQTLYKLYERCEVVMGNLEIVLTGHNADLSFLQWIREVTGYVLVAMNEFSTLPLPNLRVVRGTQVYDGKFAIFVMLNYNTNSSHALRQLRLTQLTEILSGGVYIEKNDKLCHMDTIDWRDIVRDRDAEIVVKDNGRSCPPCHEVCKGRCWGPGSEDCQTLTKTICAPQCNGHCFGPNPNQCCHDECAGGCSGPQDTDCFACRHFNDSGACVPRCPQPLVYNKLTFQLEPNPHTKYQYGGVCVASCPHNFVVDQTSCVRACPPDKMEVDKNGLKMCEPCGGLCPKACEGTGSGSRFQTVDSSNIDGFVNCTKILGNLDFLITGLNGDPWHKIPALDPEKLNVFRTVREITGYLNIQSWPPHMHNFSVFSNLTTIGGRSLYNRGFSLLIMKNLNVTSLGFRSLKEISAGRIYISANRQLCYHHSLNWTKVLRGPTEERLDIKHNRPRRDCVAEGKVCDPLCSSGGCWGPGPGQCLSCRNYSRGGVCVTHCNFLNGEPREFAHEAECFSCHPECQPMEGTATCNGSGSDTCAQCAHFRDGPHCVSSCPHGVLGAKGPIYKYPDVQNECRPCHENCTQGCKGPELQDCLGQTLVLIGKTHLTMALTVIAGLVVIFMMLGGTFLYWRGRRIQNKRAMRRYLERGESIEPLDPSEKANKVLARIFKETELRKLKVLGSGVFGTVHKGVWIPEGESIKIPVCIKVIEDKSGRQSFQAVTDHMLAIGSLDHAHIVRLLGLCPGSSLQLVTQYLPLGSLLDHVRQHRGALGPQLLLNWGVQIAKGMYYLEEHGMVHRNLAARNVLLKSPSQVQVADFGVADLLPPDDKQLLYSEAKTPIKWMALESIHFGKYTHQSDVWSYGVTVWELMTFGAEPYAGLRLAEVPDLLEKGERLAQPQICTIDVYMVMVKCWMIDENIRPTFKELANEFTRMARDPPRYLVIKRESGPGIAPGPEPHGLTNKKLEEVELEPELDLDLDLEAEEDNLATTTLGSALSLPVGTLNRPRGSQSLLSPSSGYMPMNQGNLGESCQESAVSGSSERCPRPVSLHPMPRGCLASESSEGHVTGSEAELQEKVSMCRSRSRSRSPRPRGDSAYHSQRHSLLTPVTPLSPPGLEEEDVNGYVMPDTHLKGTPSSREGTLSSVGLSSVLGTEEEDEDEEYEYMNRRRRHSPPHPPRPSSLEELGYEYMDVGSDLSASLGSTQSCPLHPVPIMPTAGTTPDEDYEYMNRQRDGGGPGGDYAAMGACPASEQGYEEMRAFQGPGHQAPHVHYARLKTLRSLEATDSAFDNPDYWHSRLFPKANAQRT

Assay [2] has as its system PC9-GR4. As to the kind of experiment: Anti-proliferation MTS assay, PC9-GR4. Type of assay: cell-based. The conditions noted are these: 72 h, PC9-GR4 cells, 3 days, read-out: Cell lines (EC50, μM) PC9-GR4. The procedure:
(§1) Cells are seeded and incubated for 3 d after bifunctional compounds of the application are added. Cell viability is measured via MTS Assay. This assay uses a colorimetric method to determine the number of viable cells based on the bioreduction of MTS by cells to a formazan product that is soluble in cell culture medium and can be detected spectrophotometrically. In a typical experiment, the supernatant is removed and replaced by 100 μl of RPMI media supplemented with MTS reagent and PMS. The plates are measured with Perkin Elmer EnVision after reaching an optical density (OD) of 1.0-2.0 at a wavelength of 490 nm. The cell numbers are normalized compared to DMSO control, and the EC50 values are calculated using GraphPad Prism.
(§2) Five cell lines, PC9-GR4, 826-GR6, Ovacar 8, A549, and Ovacar 5 were grown and treated with representative compounds Viability of the cells after the treatment was assessed by MTS assay.
(§3) The anti-proliferation assay was carried out using 96-well clear bottom plates. […] Cell viability was measured via MTS Assay. This assay uses a colorimetric method to determine the number of viable cells based on the bioreduction of MTS by cells to a formazan product that is soluble in cell culture medium and can be detected spectrophotometrically. […] The plates were measured with Perkin Elmer EnVision after reaching an optical density (OD) of 1.0-2.0 at a wavelength of 490 nm. […]

For assay [3], the target named is T1, Her3. The assay can be described thus: LanthaScreen Eu kinase binding assay. More on the design: purchased Life Technologies. The conditions noted are these: read-out: Binding Affinities (IC50). The procedure:
Lantha screening is performed by following the method reported in Nature Chemical Biology, 10, 1006-1012 (2014).
Binding affinities (IC50) of representative compounds were measured by the Life Technologies LanthaScreen Eu kinase binding assay, which was previously described (Xie T. et al., Nat. Chem. Biol. 2014, 10, 1006-1012).
Lantha screening was performed by following the method reported in Nature Chemical Biology, 10, 1006-1012 (2014).
Target sequence in this assay (P21860 20-1342, species assumed): as the sequence (P21860 20-1342) above

Assay [4] concerns 826-GR6. As to the kind of experiment: Anti-proliferation MTS assay, 826-GR6. In kind it is cell-based. The conditions noted are these: 72 h, 826-GR6 cells, 3 days, read-out: Cell lines (EC50, μM) 826-GR6. The procedure: as §1, §2, §3
Assay [5] deals with Ovacar 8. As to the kind of experiment: Anti-proliferation MTS assay, Ovacar 8. In kind it is cell-based. The conditions noted are these: 72 h, Ovacar 8 cells, 3 days, read-out: Cell lines (EC50, μM) Ovacar 8. The procedure: as §1, §2, §3
Assay [6] concerns A549. The assay can be described thus: Anti-proliferation MTS assay, A549. Type of assay: cell-based. The conditions noted are these: Homo sapiens, 72 h, A549 cells, 3 days, read-out: Cell lines (EC50, μM) A549. The procedure:
as §1, §2, §3

Assay [7] deals with Ovacar 5. The assay can be described thus: Anti-proliferation MTS assay, Ovacar 5. Type of assay: cell-based. The conditions noted are these: 72 h, Ovacar 5 cells, 3 days, read-out: Cell lines (EC50, μM) Ovacar 5. The procedure: as §1, §2, §3

SMILES strings stand for the structures. Some results are limits rather than exact numbers.

With `C=CC(=O)Nc1cc(-c2nn(C3CCN(CCOCCOCCOCCC(=O)N[C@@H](C(=O)N4C[C@@H](O)C[C@@H]4C(=O)NCc4ccc(-c5scnc5C)cc4)C(C)(C)C)CC3)c3ncnc(N)c23)ccc1Oc1ccccc1` [Compound PP1], the “Her3 Degradation” value in assay [1] was “−”.
On the same count and under the same terms, next, `C=CC(=O)Nc1cc(-c2nn(C3CCN(CC(=O)NCCCCNC(=O)COc4cccc5c4C(=O)N(C4CCC(=O)NC4=O)C5=O)CC3)c3ncnc(N)c23)ccc1Oc1ccccc1` (stereo not drawn) [Compound PP3]: “+”.
In the case of `Cc1ncsc1-c1ccc(CNC(=O)[C@@H]2C[C@@H](O)CN2C(=O)[C@@H](NC(=O)CCOCCOCCOCCN2CCC(n3nc(-c4ccc(Oc5ccccc5)c([N+](=O)[O-])c4)c4c(N)ncnc43)CC2)C(C)(C)C)cc1` [Compound PP8], in assay [2], the EC50 is more than 15 µM. In addition, in assay [3], the IC50 is more than 0.1 µM. In addition, the “Her3 Degradation” value in assay [1] is recorded as “+”.
`Nc1ncnc2c1c(-c1ccc(Oc3ccccc3)c([N+](=O)[O-])c1)nn2C1CCN(CC(=O)NCCCCNC(=O)COc2cccc3c2C(=O)N(C2CCC(=O)NC2=O)C3=O)CC1` (stereo not drawn) [Compound PP7]: the IC50 in assay [3] lay in the range of 0.01 to 0.1 µM. In assay [1], the “Her3 Degradation” value was “−”.
Turning to `C=CC(=O)Nc1cc(-c2nn(C3CCN(CC(=O)N[C@@H](C(=O)N4C[C@@H](O)C[C@@H]4C(=O)NCc4ccc(-c5scnc5C)cc4)C(C)(C)C)CC3)c3ncnc(N)c23)ccc1Oc1ccccc1` [Compound PP2], the EC50 in assay [2] was 5 to 15 µM; in assay [4] it was 5 to 15 µM; in assay [5] it was less than 5 µM; in assay [6], 5 to 15 µM; in assay [7], 5 to 15 µM. Further, the “Her3 Degradation” value in assay [1] was “+”.
For `C=CC(=O)Nc1cc(-c2nn(C3CCN(CC(=O)NCCCOCCOCCOCCCNC(=O)COc4cccc5c4C(=O)N(C4CCC(=O)NC4=O)C5=O)CC3)c3ncnc(N)c23)ccc1Oc1ccccc1` (stereo not drawn) [Compound PP5], the “Her3 Degradation” value in assay [1] is “−”.
Regarding `C=CC(=O)Nc1cc(-c2nn(C3CCN(CC(=O)NCCCCCCCCNC(=O)COc4cccc5c4C(=O)N(C4CCC(=O)NC4=O)C5=O)CC3)c3ncnc(N)c23)ccc1Oc1ccccc1` (stereo not drawn) [Compound PP4], the EC50 in assay [5] is 5 to 15 µM. Also, the “Her3 Degradation” value in assay [1] is recorded as “+”.
For the compound `Nc1ncnc2c1c(-c1ccc(Oc3ccccc3)c([N+](=O)[O-])c1)nn2C1CCN(CC(=O)NCCOCCOCCOCCNC(=O)COc2cccc3c2C(=O)N(C2CCC(=O)NC2=O)C3=O)CC1` (stereo not drawn) [Compound PP6], the IC50 in assay [3] lay in the range of 0.01 to 0.1 µM. In assay [1], the “Her3 Degradation” value is recorded as “−”.
